Calls of active or inactive are those of the source. The rule behind the calls is not given here.

One data set has as its system BMMC. Description: Anti-osteoporosis activity in C57BL/6 mouse bone marrow macrophage cells assessed as inhibition of RANKL-induced osteoclastogenesis measured after 5 days in presence of MCSF by TRAP staining based assay. In kind it is functional, cell-based. The settings on record: C57BL/6, BMMC, 120 h.
As usually defined, the IC50 is the concentration that inhibits the measured activity by half. Regarding `COCc1ccc(-c2cc(F)cc([C@H]3N(S(=O)(=O)C(C)C)CC[C@]34C(=O)N(C)c3ccccc34)c2)cc1S(C)(=O)=O`, the IC50 was 200 nM.
Consider `COC(=O)c1ccc(-c2cc(F)cc([C@H]3N(C(=O)OC(C)(C)C)CC[C@]34C(=O)N(C)c3ccccc34)c2)cc1S(C)(=O)=O`, for which the IC50 came to 2170 nM.
As to `COC(=O)Cc1ccc(-c2cc(F)cc([C@H]3N(C(=O)OC(C)(C)C)CC[C@]34C(=O)Nc3ccccc34)c2)cc1Cl`, the IC50 was 3400 nM.
Consider `COC(=O)c1cn(C)c2cc(-c3cc(F)cc([C@H]4N(C(=O)OC(C)(C)C)CC[C@]45C(=O)Nc4ccccc45)c3)ccc12`, for which the IC50 stood at 1560 nM.
Same read-out and setting: to `COC(=O)c1ccc(-c2cc(F)cc([C@H]3N(C(=O)OC(C)(C)C)CC[C@]34C(=O)Nc3ccccc34)c2)cc1Cl` belongs 8780 nM; to `COC(=O)c1c(F)cc(-c2cc(F)cc([C@H]3N(C(=O)OC(C)(C)C)CC[C@]34C(=O)Nc3ccccc34)c2)cc1F`, 4140 nM; to `COC(=O)c1ccc(-c2cccc([C@H]3N(C(=O)OC(C)(C)C)CC[C@]34C(=O)N(C)c3ccccc34)c2)cc1S(C)(=O)=O`, 200 nM.
Take `COC(=O)Cn1ccc2cc(-c3cc(F)cc([C@H]4N(C(=O)OC(C)(C)C)CC[C@]45C(=O)Nc4ccccc45)c3)ccc21`: the IC50 amounted to 3400 nM.
Same read-out and setting: to `COC(=O)c1ccc(-c2cc(F)cc([C@H]3N(S(=O)(=O)C(C)C)CC[C@]34C(=O)N(C)c3ccccc34)c2)cc1S(C)(=O)=O` belongs 200 nM; to `CC(C)(C)CC(=O)N1CC[C@]2(C(=O)Nc3ccccc32)[C@H]1c1cccc(-c2ccc(CO)c(S(C)(=O)=O)c2)c1`, 360 nM.
Regarding `COCc1ccc(-c2cc(F)cc([C@H]3N(C(=O)OC(C)(C)C)CC[C@]34C(=O)N(C)c3ccccc34)c2)cc1S(C)(=O)=O`, the IC50 worked out at 220 nM.
For `COC(=O)c1c[nH]c2cc(-c3cc(F)cc([C@H]4N(C(=O)OC(C)(C)C)CC[C@]45C(=O)Nc4ccccc45)c3)ccc12`, the IC50 was 2890 nM.
Regarding `CC(C)(C)OC(=O)N1CC[C@]2(C(=O)Nc3ccccc32)[C@H]1c1cccc(-c2ccc(CO)c(S(C)(=O)=O)c2)c1`, the half-maximal inhibitory concentration (IC50) stood at 200 nM.

The test system of another data set is BMMC. Description: Anti-osteoporosis activity in C57BL/6 mouse bone marrow macrophage cells assessed as inhibition of RANKL-induced osteoclastogenesis at more than 10 uM measured after 5 days in presence of MCSF by TRAP staining based assay. It counts as functional, cell-based. The settings on record: time 5.0 day.
With `CC(C)(C)OC(=O)N1CC[C@]2(C(=O)Nc3ccccc32)[C@H]1c1cc(F)cc(-c2ccc(C(=O)O)c(S(C)(=O)=O)c2)c1`, the inhibition entry was “inactive”.
Still for that read-out and setting: the result for `CC(C)(C)OC(=O)N1CC[C@]2(C(=O)Nc3ccccc32)[C@H]1c1cc(F)cc(-c2ccc(CC(=O)O)c(Cl)c2)c1` reads “inactive”.

In another data set the test system is BMMC. In words: Cytotoxicity against C57BL/6 mouse bone marrow macrophage cells assessed as reduction in cell viability up to 10 uM incubated for 72 hrs by MTT assay. In kind it is toxicity, cell-based.
Conditions: not given
Take `COC(=O)c1ccc(-c2cc(F)cc([C@H]3N(C(=O)OC(C)(C)C)CC[C@]34C(=O)Nc3ccccc34)c2)cc1S(C)(=O)=O`: the Activity result was “Non-Toxic”.
